# Data taken from patent publication US11420961B2, “Heterocyclic compounds” (Hoffmann-La Roche Inc., priority 2017, dated 2022).
# Biological target: T1, MAGL (recombinant wild-type) (Homo sapiens, UniProt Q99685)
# T1 sequence (Q99685 1-303): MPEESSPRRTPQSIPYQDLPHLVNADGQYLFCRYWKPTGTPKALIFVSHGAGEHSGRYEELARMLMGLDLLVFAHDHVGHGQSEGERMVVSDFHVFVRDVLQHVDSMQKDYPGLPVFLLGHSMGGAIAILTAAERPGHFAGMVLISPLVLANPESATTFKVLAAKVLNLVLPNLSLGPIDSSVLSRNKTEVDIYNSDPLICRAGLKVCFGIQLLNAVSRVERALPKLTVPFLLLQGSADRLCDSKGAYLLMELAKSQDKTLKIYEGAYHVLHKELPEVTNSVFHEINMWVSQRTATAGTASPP
# Assay: 4-NPA assay: MAGL inhibitory activity by hydrolysis of 4-nitrophenylacetate, absorbance at 405 nm
# Format: biochemical
# Settings: 4-NPA assay (values without footnote [a])
# Procedure: Compounds were profiled for MAGL inhibitory activity by measuring the enzymatic activity of MAGL by following the hydrolysis of 4-nitorphenylacetate resulting in 4-nitrophenol, which absorbs at 405-412 nm (G. G. Muccioli, G. Labar, D M. Lambert, Chem. Bio. Chem. 2008, 9, 2704-2710). This assay is hereinafter abbreviated “4-NPA assay”.
# The 4-NPA assay was carried out in 384 well assay plates (black with clear bottom, non-binding surface treated, Corning Ref. 3655) in a total volume of 40 μL. Compound dilutions were made in 100% DMSO (VWR Chemicals 23500.297) in a polypropylene plate in 3-fold dilution steps to give a final concentration range in the assay from 25 μM to 1.7 nM. 1 μL compound dilutions (100% DMSO) were added to 19 μL MAGL (recombinant wild-type) in assay buffer (50 mM TRIS (GIBCO, 15567-027), 1 mM EDTA (Fluka, 03690-100 ml)). The plate was shaked for 1 min at 2000 rpm (Variomag Teleshake) and then incubated for 15 min at RT. To start the reaction, 20 μL 4-Nitrophenlyacetate (Sigma N-8130) in assay buffer with 6% EtOH was added. The final concentrations in the assay were 1 nM MAGL and 300 μM 4-Nitrophenylacetate. After shaking (1 min, 2000 rpm) and 5 min incubation at RT, the absorbance at 405 nm was measured for a first time (Molecular Devices, SpectraMax Paradigm). A second measurement was then done after incubation for 80 min at RT. From the two measurements, the slope was calculated by substracting the first from the second measurement.
row,IC50,Compound
1,0.4 nM,"Cc1ccc(C(c2ccc(F)cc2)C2CCN(C(=O)c3ccc4c(c3)NC(=O)CO4)CC2)cc1 (single isomer, unassigned) [Example 113, 6-[4-[(R or S)-(4-Fluorophenyl)-(p-tolyl)methyl]piperidine-1-carbonyl]-4H-1,4-benzoxazin-3-one]"
2,549 nM,"O=C1COc2ccc(C(=O)N3CCC(c4nnc(-c5ccccc5)o4)CC3)cc2N1 [Example 48, 6-[4-(5-phenyl-1,3,4-oxadiazol-2-yl)piperidine-1-carbonyl]-4H-1,4-benzoxazin-3-one]"
3,4 nM,"O=C1COc2ccc(C(=O)N3CCC(C(c4ccc(F)cc4)c4ccc(F)nc4)CC3)cc2N1 (single isomer, unassigned) [Example 114, 6-[4-[(S or R)-(4-Fluorophenyl)-(6-fluoro-3-pyridyl)methyl]piperidine-1-carbonyl]-4H-1,4-benzoxazin-3-one]"
4,158 nM,"O=C1COc2ccc(C(=O)N3CCC(c4n[nH]c5ccccc45)CC3)cc2N1 [Example 36, 6-[4-(1H-indazol-3-yl)piperidine-1-carbonyl]-4H-1,4-benzoxazin-3-one]"
5,0.62 nM,"O=C1COc2ccc(C(=O)N3CCC(C(c4ccccc4)n4ccc5ccccc54)CC3)cc2N1 (centres unmarked) [Example 60, 6-[4-[indol-1-yl(phenyl)methyl]piperidine-1-carbonyl]-4H-1,4-benzoxazin-3-one]"
6,10.6 nM,"O=C1COc2ccc(C(=O)N3CCC(c4c[nH]c5cc(F)ccc45)CC3)cc2N1 [Example 23, 6-[4-(6-fluoro-1H-indol-3-yl)piperidine-1-carbonyl]-4H-1,4-benzoxazin-3-one]"
7,68 nM,"O=C1COc2ccc(C(=O)N3CCC(C4(c5ccccc5)CC4)CC3)cc2N1 [Example 55, 6-[4-(1-phenylcyclopropyl)piperidine-1-carbonyl]-4H-1,4-benzoxazin-3-one]"
8,1.66 nM,"O=C1COc2ccc(C(=O)N3CCC([C@@H](c4ccc(F)cc4)c4cccc(OCCF)c4)CC3)cc2N1 [Example 77, 6-[4-[(S)-[3-(2-fluoroethoxy)phenyl]-(4-fluorophenyl)methyl]piperidine-1-carbonyl]-4H-1,4-benzoxazin-3-one]"
9,1900 nM,"COc1cc(OC)cc(N2CCN(C(=O)c3ccc4c(c3)NC(=O)CO4)CC2)c1 [Example 89, 6-[4-(3,5-dimethoxyphenyl)piperazine-1-carbonyl]-4H-1,4-benzoxazin-3-one]"
10,1.7 nM,Cn1cc(C2CCN(C(=O)c3ccc4c(c3)NC(=O)CO4)CC2)c2cc(Cl)ccc21 [Example 29]
11,8.7 nM,"COc1ccc(C(c2cccnc2)C2CCN(C(=O)c3ccc4c(c3)NC(=O)CO4)CC2)cc1OC (single isomer, unassigned) [Example 123, 6-[4-[(S or R)-(3,4-Dimethoxyphenyl)-(3-pyridyl)methyl]piperidine-1-carbonyl]-4H-1,4-benzoxazin-3-one]"
12,440 nM,"COc1ccc2[nH]c(C)c(C3CCN(C(=O)c4ccc5c(c4)NC(=O)CO5)CC3)c2c1 [Example 41, 6-[4-(5-methoxy-2-methyl-1H-indol-3-yl)piperidine-1-carbonyl]-4H-1,4-benzoxazin-3-one]"
13,550 nM,"O=C1COc2ccc(C(=O)N3CCC(c4cc5ccccc5[nH]4)CC3)cc2N1 [Example 40, 6-[4-(1H-indol-2-yl)piperidine-1-carbonyl]-4H-1,4-benzoxazin-3-one]"
14,0.5 nM,"O=C1COc2ccc(C(=O)N3CCC(C(c4ccccc4)c4ccccc4)CC3)cc2N1 [Example 2, 6-(4-Benzhydrylpiperidine-1-carbonyl)-4H-1,4-benzoxazin-3-one]"
15,55.4 nM,"COc1ccc(C(c2ccccn2)C2CCN(C(=O)c3ccc4c(c3)NC(=O)CO4)CC2)cc1OC (single isomer, unassigned) [Example 116, 6-[4-[(R or S)-(3,4-Dimethoxyphenyl)-(2-pyridyl)methyl]piperidine-1-carbonyl]-4H-1,4-benzoxazin-3-one]"
16,180 nM,"O=C1COc2ccc(C(=O)N3CCC(c4n[nH]c5cc(F)ccc45)CC3)cc2N1 [Example 43, 6-[4-(6-fluoro-1H-indazol-3-yl)piperidine-1-carbonyl]-4H-1,4-benzoxazin-3-one]"

row,IC50,Compound
1,0.4 nM,"O=C1COc2ccc(C(=O)N3CCC(C(c4ccc(F)cc4)c4cccc(OCCOCCF)c4)CC3)cc2N1 (single isomer, unassigned) [Example 94, 6-[4-[(S or R)-[3-[2-(2-Fluoroethoxy)ethoxy]phenyl]-(4-fluorophenyl)methyl]piperidine-1-carbonyl]-4H-1,4-benzoxazin-3-one]"
2,59 nM,"Cc1[nH]c2ccc(Cl)cc2c1C1CCN(C(=O)c2ccc3c(c2)NC(=O)CO3)CC1 [Example 47, 6-[4-(5-chloro-2-methyl-1H-indol-3-yl)piperidine-1-carbonyl]-4H-1,4-benzoxazin-3-one]"
3,14 nM,"O=C1COc2ccc(C(=O)N3CCC(c4c[nH]c5cc(Cl)ccc45)CC3)cc2N1 [Example 21, 6-[4-(6-chloro-1H-indol-3-yl)piperidine-1-carbonyl]-4H-1,4-benzoxazin-3-one]"
4,12.2 nM,"CS(=O)(=O)c1cccc(C(c2ccccc2)C2CCN(C(=O)c3ccc4c(c3)NC(=O)CO4)CC2)c1 (single isomer, unassigned) [Example 129, 6-[4-[(R or S)-(3-Methylsulfonylphenyl)-phenyl-methyl]piperidine-1-carbonyl]-4H-1,4-benzoxazin-3-one]"
5,0.8 nM,"COc1ccc(C(c2ccc(F)cc2)C2CCN(C(=O)c3ccc4c(c3)NC(=O)CO4)CC2)cc1OC (single isomer, unassigned) [Example 105, 6-[4-[(R or S)-(3,4-Dimethoxyphenyl)-(4-fluorophenyl)methyl]piperidine-1-carbonyl]-4H-1,4-benzoxazin-3-one]"
6,7.3 nM,"O=C1COc2ccc(C(=O)N3CCC(C4(c5ccc(Br)cc5)OCCO4)CC3)cc2N1 [Example 54, 6-[4-[2-(4-bromophenyl)-1,3-dioxolan-2-yl]piperidine-1-carbonyl]-4H-1,4-benzoxazin-3-one]"
7,2220 nM,"O=C1COc2ccc(C(=O)N3CCN(c4ccc(C(F)(F)F)cn4)CC3)cc2N1 [Example 90, 6-[4-[5-(trifluoromethyl)-2-pyridyl]piperazine-1-carbonyl]-4H-1,4-benzoxazin-3-one]"
8,36 nM,"O=C1COc2ccc(C(=O)N3CCC(c4cn(C5CC5)c5cc(Cl)ccc45)CC3)cc2N1 [Example 34, 6-[4-(6-chloro-1-cyclopropylindol-3-yl)piperidine-1-carbonyl]-4H-1,4-benzoxazin-3-one]"
9,1.8 nM,"O=C1COc2ccc(C(=O)N3CCC(C(c4ccccc4)c4cccc(F)n4)CC3)cc2N1 (single isomer, unassigned) [Example 98, 6-[4-[(S or R)-(6-Fluoro-2-pyridyl)-phenyl-methyl]piperidine-1-carbonyl]-4H-1,4-benzoxazin-3-one]"
10,3.55 nM,"O=C1COc2ccc(C(=O)N3CCC(c4c[nH]c5ccc(Cl)cc45)CC3)cc2N1 [Example 20, 6-[4-(5-chloro-1H-indol-3-yl)piperidine-1-carbonyl]-4H-1,4-benzoxazin-3-one]"
11,2740 nM,"COc1cc(N2CCN(C(=O)c3ccc4c(c3)NC(=O)CO4)CC2)cc(OC)c1OC [Example 92, 6-[4-(3,4,5-trimethoxyphenyl)piperazine-1-carbonyl]-4H-1,4-benzoxazin-3-one]"
12,0.8 nM,"COc1ccc(C(c2ccccc2)C2CCN(C(=O)c3ccc4c(c3)NC(=O)CO4)CC2)cc1 (centres unmarked) [Example 58, 6-[4-[(4-methoxyphenyl)-phenyl-methyl]piperidine-1-carbonyl]-4H-1,4-benzoxazin-3-one]"
13,0.6 nM,"COc1ccc([C@@H](c2ccccc2)C2CCN(C(=O)c3ccc4c(c3)NC(=O)CO4)CC2)cc1 (single isomer, unassigned) [Example 11]"
14,802 nM,"COc1ccc(C(c2ccccc2)C2CN(C(=O)c3ccc4c(c3)NC(=O)CO4)C2)cc1OC (centres unmarked) [Example 127, 6-[3-[(3,4-Dimethoxyphenyl)-phenyl-methyl]azetidine-1-carbonyl]-4H-1,4-benzoxazin-3-one]"
15,0.3 nM,"COc1ccc(C(c2ccc(F)cc2)C2CCN(C(=O)c3ccc4c(c3)NC(=O)CO4)CC2)cc1OC (single isomer, unassigned) [Example 104, 6-[4-[(S or R)-(3,4-Dimethoxyphenyl)-(4-fluorophenyl)methyl]piperidine-1-carbonyl]-4H-1,4-benzoxazin-3-one]"
16,0.24 nM,"O=C1COc2ccc(C(=O)N3CCC([C@H](c4ccccc4)c4cccc(OCCOCCF)c4)CC3)cc2N1 [Example 66, 6-[4-[(R)-[3-[2-(2-fluoroethoxy)ethoxy]phenyl]-phenyl-methyl]piperidine-1-carbonyl]-4H-1,4-benzoxazin-3-one]"
